Among the data in patent publication US20160200733A1, “SUBSTITUTED THIENO[2,3-B]PYRIDINE-2-CARBOXAMIDE ANALOGS AS POSITIVE ALLOSTERIC MODULATORS OF THE MUSCARINIC ACETYLCHOLINE RECEPTOR M4” (Vanderbilt University, priority 2013, published 2016) are EC50 and Emax values, retold here.

The assay concerns the target T1, mAChR hM4 (Homo sapiens, UniProt P08173).
T1 construct: expressed in transfected cells; host or cells: CHO-K1 (Chinese hamster ovary) cells
T1 sequence (P08173 1-479): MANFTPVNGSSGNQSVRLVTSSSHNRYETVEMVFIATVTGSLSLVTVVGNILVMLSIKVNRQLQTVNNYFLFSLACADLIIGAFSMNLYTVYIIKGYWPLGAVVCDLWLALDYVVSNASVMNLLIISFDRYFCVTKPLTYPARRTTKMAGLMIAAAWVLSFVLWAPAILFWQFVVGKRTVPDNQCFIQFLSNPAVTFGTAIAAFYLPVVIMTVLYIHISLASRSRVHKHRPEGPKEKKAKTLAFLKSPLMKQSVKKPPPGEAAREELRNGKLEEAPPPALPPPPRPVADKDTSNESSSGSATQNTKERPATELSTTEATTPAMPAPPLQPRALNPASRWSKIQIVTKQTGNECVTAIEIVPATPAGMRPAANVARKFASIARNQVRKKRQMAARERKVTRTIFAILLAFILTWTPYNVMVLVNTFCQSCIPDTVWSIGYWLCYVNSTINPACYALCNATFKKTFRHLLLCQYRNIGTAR
Description: mAChR M4 cell-based functional assay (calcium flux, potentiation of EC20 acetylcholine response). The note with it: mAChR hM4 cell-line; for EC50: >10,000 estimated for low potency compounds lacking a plateau; for Emax at 30 µM: % ACh maximum at 30 μM. An excerpt:
In one aspect, the disclosed compounds potentiate the agonist response (e.g., acetylcholine) of mAChR M4. In a further aspect, the disclosed compounds increase mAChR M4 response to non-maximal concentrations of agonist in the presence of compound compared to the response to agonist in the absence of compound. […] For example, activation of mAChR M4 activity can be determined by measurement of calcium flux in response to agonist, e.g. acetylcholine, in cells loaded with a Ca^2+-sensitive fluorescent dye (e.g., Fluo-4). In a further aspect, the calcium flux was measured as an increase in fluorescent static ratio. In a yet further aspect, positive allosteric modulator activity was analyzed as a concentration-dependent increase in the EC20 acetylcholine response (i.e. the response of mAChR M4 at a concentration of acetylcholine that yields 20% of the maximal response).
In one aspect, the disclosed compounds activate mAChR M4 response as an increase in calcium fluorescence in mAChR M4-transfected CHO-K1 cells in the presence of the compound, compared to the response of equivalent CHO-K1 cells in the absence of the compound. […] In a further aspect, the mAChR M4-transfected CHO-K1 cells are transfected with human mAChR M4. In a still further aspect, the mAChR M4-transfected CHO-K1 cells are transfected with rat mAChR M4.
Substituted 3-aminothieno[2,3-c]pyridine-2-carboxamide analogs were synthesized as described above. Activity (EC50 and Emax) was determined in the mAChR M4 cell-based functional assay as described above, and the data are shown in Table II for assays conducted using mAChR hM4 cell-line. The compound number corresponds to the compound numbers used in Table I.

For orientation: EC50 means the concentration giving half of the maximal effect. With `Cc1nc2sc(C(=O)NC3COC3)c(-c3ccccc3)c2c(C)c1Cl` [Compound 62, 5-chloro-4,6-dimethyl-N-(oxetan-3-yl)-3-phenylthieno[2,3-b]pyridine-2-carboxamide], the EC50 is greater than 10 µM.

The Emax is the size of the effect at its maximum, as opposed to the concentration needed. As to `Cc1nc2sc(C(=O)NC3COC3)c(C)c2c(C)c1Cl` [Compound 63, 5-chloro-3,4,6-trimethyl-N-(oxetan-3-yl)thieno[2,3-b]pyridine-2-carboxamide], the Emax at 30 µM came to 76% and the EC50 is 0.41 µM.

In the case of `Cc1nc2sc(C(=O)N3CCC(c4ccccc4)C3)c(C3CC3)c2c(C)c1Cl` (stereo not drawn) [Compound 64, (5-chloro-3-cyclopropyl-4,6-dimethylthieno[2,3-b]pyridin-2-yl)(3-phenylpyrrolidin-1-yl)methanone], the EC50 was greater than 10 µM.

As to `COc1ccc(C2CC2NC(=O)c2sc3nc(C)c(Cl)c(C)c3c2C2CC2)cc1` (stereo not drawn) [Compound 65, 5-chloro-3-cyclopropyl-N-(2-(4-methoxyphenyl)cyclopropyl)-4,6-dimethylthieno[2,3-b]pyridine-2-carboxamide], the concentration for a half-maximal effect (EC50) was greater than 10 µM.

As for `COc1ccc(CNC(=O)c2sc3nc(C)cc(C)c3c2-c2cnn(C)c2)cc1F` [Compound 66, N-(3-fluoro-4-methoxybenzyl)-4,6-dimethyl-3-(1-methyl-1H-pyrazol-4-yl)thieno[2,3-b]pyridine-2-carboxamide], the EC50 is greater than 10 µM.

For `Cc1cc(C)c2c(-c3cnn(C)c3)c(C(=O)N3CCC(c4ccccc4)C3)sc2n1` (stereo not drawn) [Compound 67, (4,6-dimethyl-3-(1-methyl-1H-pyrazol-4-yl)thieno[2,3-b]pyridin-2-yl)(3-phenylpyrrolidin-1-yl)methanone], the EC50 was greater than 10 µM.

Regarding `COc1ccc(C2CC2NC(=O)c2sc3nc(C)cc(C)c3c2-c2cnn(C)c2)cc1` (stereo not drawn) [Compound 68, N-(2-(4-methoxyphenyl)cyclopropyl)-4,6-dimethyl-3-(1-methyl-1H-pyrazol-4-yl)thieno[2,3-b]pyridine-2-carboxamide], the EC50 is greater than 10 µM.

As for `COc1ccc(CNC(=O)c2sc3nc(C)c(Cl)c(C)c3c2C2CC2)cc1F` [Compound 69, 5-chloro-3-cyclopropyl-N-(3-fluoro-4-methoxybenzyl)-4,6-dimethylthieno[2,3-b]pyridine-2-carboxamide], the EC50 was greater than 10 µM.

In the case of `Cc1cc(C)c2c(-c3cnn(C)c3)c(C(=O)NCc3ccc4c(c3)CCO4)sc2n1` [Compound 70, N-((2,3-dihydrobenzofuran-5-yl)methyl)-4,6-dimethyl-3-(1-methyl-1H-pyrazol-4-yl)thieno[2,3-b]pyridine-2-carboxamide], the EC50 was greater than 10 µM.

For `Cc1cc(C)c2c(-c3cnn(C)c3)c(C(=O)NCc3cnn(-c4ccccc4)c3)sc2n1` [Compound 71, 4,6-dimethyl-3-(1-methyl-1H-pyrazol-4-yl)-N-((1-phenyl-1H-pyrazol-4-yl)methyl)thieno[2,3-b]pyridine-2-carboxamide], the EC50 was greater than 10 µM.

On to `Cc1nc2sc(C(=O)N3CC(c4ccccc4)C3)c(C3CC3)c2c(C)c1Cl` [Compound 72, (5-chloro-3-cyclopropyl-4,6-dimethylthieno[2,3-b]pyridin-2-yl)(3-phenylazetidin-1-yl)methanone], for which the EC50 is greater than 10 µM.

For `Cc1nc2sc(C(=O)NCc3cnn(-c4ccccc4)c3)c(C3CC3)c2c(C)c1Cl` [Compound 73, 5-chloro-3-cyclopropyl-4,6-dimethyl-N-((1-phenyl-1H-pyrazol-4-yl)methyl)thieno[2,3-b]pyridine-2-carboxamide], the EC50 is greater than 10 µM.

Take `Cc1cc(C)c2cc(C(=O)NC3COC3)sc2n1` [Compound 74, 4,6-dimethyl-N-(oxetan-3-yl)thieno[2,3-b]pyridine-2-carboxamide]: the Emax at 30 µM worked out at 46% and the EC50 is greater than 10 µM.

In the case of `Cc1cc(C)c2cc(C(=O)NC3CN(c4cccnc4)C3)sc2n1` [Compound 75, 4,6-dimethyl-N-(1-(pyridin-3-yl)azetidin-3-yl)thieno[2,3-b]pyridine-2-carboxamide], the Emax at 30 µM was determined as 67% and the EC50 was 1.2 µM.

Turning to `Cc1cc(C)c2cc(C(=O)NC3CN(c4ccc(C(F)(F)F)nc4)C3)sc2n1` [Compound 76, 4,6-dimethyl-N-(1-(6-(trifluoromethyl)pyridin-3-yl)azetidin-3-yl)thieno[2,3-b]pyridine-2-carboxamide], the EC50 was greater than 10 µM.

As for `Cc1cc(C)c2cc(C(=O)NCc3cnn(-c4ccccc4)c3)sc2n1` [Compound 77, 4,6-dimethyl-N-((1-phenyl-1H-pyrazol-4-yl)methyl)thieno[2,3-b]pyridine-2-carboxamide], the EC50 is greater than 10 µM.

For `Cc1cc(C)c2cc(C(=O)NCc3ccc(-c4cccnc4F)cc3)sc2n1` [Compound 78, N-(4-(2-fluoropyridin-3-yl)benzyl)-4,6-dimethylthieno[2,3-b]pyridine-2-carboxamide], the Emax at 30 µM turned out to be 34% and the EC50 is greater than 10 µM.

On to `Cc1cc(C)c2cc(C(=O)NCc3ccc(-c4ccnnc4)s3)sc2n1` [Compound 79, 4,6-dimethyl-N-((5-(pyridazin-4-yl)thiophen-2-yl)methyl)thieno[2,3-b]pyridine-2-carboxamide], for which the EC50 is greater than 10 µM.

Turning to `Cc1cc(C)c2cc(C(=O)NCC3CCN(c4ccccc4)C3)sc2n1` (stereo not drawn) [Compound 80, 4,6-dimethyl-N-((1-phenylpyrrolidin-3-yl)methyl)thieno[2,3-b]pyridine-2-carboxamide], the EC50 is greater than 10 µM.

As for `COc1ccc(C2CC2NC(=O)c2cc3c(C)cc(C)nc3s2)cc1` (stereo not drawn) [Compound 81, N-(2-(4-methoxyphenyl)cyclopropyl)-4,6-dimethylthieno[2,3-b]pyridine-2-carboxamide], the Emax at 30 µM was found to be 30% and the 50% effective concentration (EC50) is 0.82 µM.

Consider `Cc1cc(C)c2cc(C(=O)N3CC(c4ccccc4)C3)sc2n1` [Compound 82, (4,6-dimethylthieno[2,3-b]pyridin-2-yl)(3-phenylazetidin-1-yl)methanone], for which the Emax at 30 µM came out at 34% and the EC50 was 2.4 µM.

With `Cc1cc(C)c2cc(C(=O)N3CCC(c4ccccc4)C3)sc2n1` (stereo not drawn) [Compound 83, (4,6-dimethylthieno[2,3-b]pyridin-2-yl)(3-phenylpyrrolidin-1-yl)methanone], the EC50 is greater than 10 µM.

For `COc1ccc(CNC(=O)c2cc3c(C)cc(C)nc3s2)cc1F` [Compound 84, N-(3-fluoro-4-methoxybenzyl)-4,6-dimethylthieno[2,3-b]pyridine-2-carboxamide], the Emax at 30 µM worked out at 49% and the EC50 is 6.7 µM.

Take `Cc1cc(C)c2cc(C(=O)NCc3ccc(S(=O)(=O)C(F)(F)F)cc3)sc2n1` [Compound 85, 4,6-dimethyl-N-(4-((trifluoromethyl)sulfonyl)benzyl)thieno[2,3-b]pyridine-2-carboxamide]: the EC50 is greater than 10 µM.

For the compound `Cc1nc2sc(C(=O)N3CCC(c4ccccc4)C3)c(-c3cnn(C)c3)c2c(C)c1Cl` (stereo not drawn) [Compound 86, (5-chloro-4,6-dimethyl-3-(1-methyl-1H-pyrazol-4-yl)thieno[2,3-b]pyridin-2-yl)(3-phenylpyrrolidin-1-yl)methanone], the EC50 is greater than 10 µM.

As to `Cc1nc2sc(C(=O)NC3CCC3)c(-c3cnn(C)c3)c2c(C)c1Cl` [Compound 87, 5-chloro-N-cyclobutyl-4,6-dimethyl-3-(1-methyl-1H-pyrazol-4-yl)thieno[2,3-b]pyridine-2-carboxamide], the EC50 is greater than 10 µM.

With `Cc1nc2sc(C(=O)NC3CCCOC3)c(-c3cnn(C)c3)c2c(C)c1Cl` (stereo not drawn) [Compound 88, 5-chloro-4,6-dimethyl-3-(1-methyl-1H-pyrazol-4-yl)-N-(tetrahydro-2H-pyran-3-yl)thieno[2,3-b]pyridine-2-carboxamide], the EC50 was greater than 10 µM.

Take `Cc1nc2sc(C(=O)NC3CCS(=O)(=O)C3)c(-c3cnn(C)c3)c2c(C)c1Cl` (stereo not drawn) [Compound 89, 5-chloro-N-(1,1-dioxidotetrahydrothiophen-3-yl)-4,6-dimethyl-3-(1-methyl-1H-pyrazol-4-yl)thieno[2,3-b]pyridine-2-carboxamide]: the EC50 was greater than 10 µM.

As for `Cc1nc2sc(C(=O)NC3CC3)c(-c3cnn(C)c3)c2c(C)c1Cl` [Compound 90, 5-chloro-N-cyclopropyl-4,6-dimethyl-3-(1-methyl-1H-pyrazol-4-yl)thieno[2,3-b]pyridine-2-carboxamide], the EC50 was greater than 10 µM.
